Read-outs that look alike come from different tables or passages of the source.
Legend:
[1] = test system: Bacillus stearothermophilus spores; conditions: 5 minutes vaporization, no revaporization
Excerpt: In Example 1, the following items were placed in a CSR-wrapped tray in a 173 L sterilization chamber: Open Petri dish 2.48 mm id×50 cm Teflon lumen 2.48 mm id×75 cm Teflon lumen 2.48 mm id×100 cm Teflon lumen 40 pieces of medical devices The Petri dish contained a biological challenge consisting of 2.2×10^6 Bacillus stearothermophilus spores on a stainless steel coupon. A coupon was also placed in the center of each of the three lumens. The coupon in the Petri dish was used as a test of the effectiveness of the method at sterilizing the exterior of a device, and the coupons in the lumens were a test of the effectiveness of sterilizing the interior of the lumens. Three experiments were performed in which 1, 2, and 3 g of 59 wt % hydrogen peroxide were introduced into the vaporizer after the chamber was evacuated to 0.4 torr and allowed to vaporize and diffuse into the chamber for 5 minutes.

[2] = test system: Bacillus stearothermophilus spores; conditions: 3 g of 59% hydrogen peroxide, 5 Minutes Vaporization
Excerpt: (§1) The Petri dish contained a biological challenge consisting of 2.2×10^6 Bacillus stearothermophilus spores on a stainless steel coupon. A coupon was also placed in the center of each of the three lumens. The coupon in the Petri dish was used as a test of the effectiveness of the method at sterilizing the exterior of a device, and the coupons in the lumens were a test of the effectiveness of sterilizing the interior of the lumens. In Example 2, the test of Example 1 with 3 g of 59% hydrogen peroxide was repeated with the addition of 20 minutes exposure time to the hydrogen peroxide vapor.

[3] = test system: Bacillus stearothermophilus spores; conditions: 3 g of 59 wt % hydrogen peroxide, 5 Minutes Vaporization and 20 Minutes Diffusion
Excerpt: as §1, with “lumens.” for “lumens. In Example 2, the test of Example 1 with 3 g of 59% hydrogen peroxide was repeated with the addition of 20 minutes exposure time to the hydrogen peroxide vapor.”
In Example 3, the pressure in the sterilization chamber was reduced to 0.4 torr, a total of 3 g of 59 wt % hydrogen peroxide was placed in the vaporizer, and the hydrogen peroxide was vaporized and diffused into the sterilization chamber for 5 minutes. The hydrogen peroxide was then allowed to diffuse at various pressures for 20 minutes. The pressure in the sterilization chamber was at constant pressure by controlling the pressure with an automatic valve between the sterilization chamber and the vacuum pump.
The experiment on the first line of Table 5 is the control experiment, in which the hydrogen peroxide was vaporized into the chamber and allowed to diffuse with the valve between the sterilization chamber and the vacuum pump closed. The pressure in the sterilization chamber was 9.5 torr, which is higher than the vapor pressure of 43 mole % hydrogen peroxide/water solution at 20° C., the approximate temperature of the equipment in the sterilization chamber, as shown in Table 2.
In the experiments described on the following lines of Table 5, the 3 grams of 59 wt % hydrogen peroxide was vaporized for 5 minutes.
The pressure in the sterilization chamber was then reduced, and the condensed vapor was vaporized and allowed to diffuse at constant pressure for 20 minutes. The interior of the sterilization chamber was maintained at a constant pressure by the automatic valve between the sterilization chamber and the vacuum pump. The constant pressure in the sterilization chamber ranged from 7 torr to 1 torr.
In the examples on the following lines, the same procedure was followed, vaporizing 3 g of 59 wt % hydrogen peroxide for 5 minutes and diffusing at constant pressure for 20 minutes. The constant diffusion pressure ranged from 1 to 6 torr.

[4] = test system: Bacillus stearothermophilus spores; conditions: 3 g of 59 wt % hydrogen peroxide, 5 Minutes Vaporization and 20 Minutes Diffusion; remark: listed apart in the source
Experimental: as §1, with “lumens.” for “lumens. In Example 2, the test of Example 1 with 3 g of 59% hydrogen peroxide was repeated with the addition of 20 minutes exposure time to the hydrogen peroxide vapor.”
In this example, the procedure of Example 3 was carried out, but the valve between the sterilization chamber and the vacuum pump was closed after the desired pressure was reached. In Example 3, constant pressure was maintained throughout the 20 minutes of diffusion.
The Petri dish and three lumens were placed in a tray in a 173 L sterilization chamber, and the chamber was evacuated to 0.4 torr. A total of 3 g of 59 wt % hydrogen peroxide was vaporized in the vaporizer and diffused into the sterilization chamber over a period of 5 minutes, and the pressure in the sterilization chamber was reduced to the desired value, and the valve between the sterilization chamber and the vacuum pump was closed. The hydrogen peroxide was then allowed to diffuse in the sterilization chamber for 20 minutes.

[5] = test system: Bacillus stearothermophilus spores; conditions: 3 g of 57% hydrogen peroxide, 5 Minutes Vaporization
Excerpt: The Petri dish contained a biological challenge consisting of 2.2×10^6 Bacillus stearothermophilus spores on a stainless steel coupon. A coupon was also placed in the center of each of the three lumens. The coupon in the Petri dish was used as a test of the effectiveness of the method at sterilizing the exterior of a device, and the coupons in the lumens were a test of the effectiveness of sterilizing the interior of the lumens. In Example 5, the Petri dish and three lumens were placed in a tray with 40 medical devices in the sterilization chamber, the chamber was evacuated to 0.4 torr, 3 g of 57% hydrogen peroxide were vaporized into the chamber over 5 minutes, and the chamber was vented to 1 atmosphere. The hydrogen peroxide was then allowed to diffuse for a total of 20 minutes, either at 1 atmosphere pressure or 4 torr. In the first experiment in Table 7, the sterilization chamber was vented to atmosphere after the hydrogen peroxide was vaporized into the sterilization chamber, and the hydrogen peroxide vapor was allowed to diffuse at 1 atmosphere for 19.5 minutes. […] The first experiment was the control experiment for the second experiment. In the second experiment in Table 7, the sterilization chamber was vented to atmosphere for 0.5 minutes, then the pressure in the sterilization chamber was reduced to 4 torr and controlled at that pressure for a total of 19.5 minutes.

[6] = test system: Bacillus stearothermophilus spores
Excerpt: The Petri dish contained a biological challenge consisting of 2.2×10^6 Bacillus stearothermophilus spores on a stainless steel coupon. A coupon was also placed in the center of each of the three lumens. The coupon in the Petri dish was used as a test of the effectiveness of the method at sterilizing the exterior of a device, and the coupons in the lumens were a test of the effectiveness of sterilizing the interior of the lumens. In the following experiment, the condensed hydrogen peroxide was revaporized multiple times. The following procedure was followed in the experiment. A tray containing the Petri dish and three lumens with inoculated blades was placed in a 173 L sterilization chamber, as in the other examples, and the chamber was evacuated to 0.4 torr. The experiment with multiple revaporizations was conducted as follows: 1. 3 grams of 59% hydrogen peroxide were introduced into the vaporizer. 2. The hydrogen peroxide was vaporized and introduced into the sterilization chamber over a period of 5 minutes. 3. The pressure was reduced to 4 torr for 5 minutes to revaporize the hydrogen peroxide. 4. The sterilization chamber was vented to 1 atmosphere pressure for 0.5 minutes to condense the vapor again. 5. The pressure in the sterilization chamber was reduced to 4 torr and maintained at a constant pressure of 4 torr for 14.5 minutes. The total cycle lasted 25 minutes.

[7] = Reducing and controlling at 1 torr
[8] = Reducing and controlling at 2 torr
[9] = Reducing and controlling at 3 torr
[10] = Reducing and controlling at 4 torr
[11] = Reducing and controlling at 5 torr
[12] = Reducing and controlling at 6 torr
[13] = Reducing and controlling at 7 torr
[14] = Without pump-down, final pressure about 9.5 torr
[15] = Valve closed at 1 torr, final pressure about 1.7 torr
[16] = Valve closed at 2 torr, final pressure about 2.8 torr
[17] = 0.5 Minutes Vent Plus 19.5 Minutes Reducing and Controlling at 4 Torr
[18] = 0.5 Minutes Vent Plus 19.5 Minutes at 1 Atm.
[19] = 3 grams of 59% hydrogen peroxide, Cycle with Two-Vaporization Process: 5 minutes vaporization, 4 torr 5 minutes, vent 1 atmosphere 0.5 minutes, 4 torr 14.5 minutes
[20] = control: 5 Minutes Vaporization plus 20 Minutes Diffusion at 1 atm.

OO [hydrogen peroxide]
Sterility Results In 2.48 mm × 50 cm Teflon lumen ([1]; 1 g 59% hydrogen peroxide): − | Sterility Results In 2.48 mm × 75 cm Teflon lumen ([1]; 1 g 59% hydrogen peroxide): + | Sterility Results In 2.48 × 100 cm Teflon lumen ([1]; 1 g 59% hydrogen peroxide): + | Sterility Results In Open Petri Dish ([1]; 1 g 59% hydrogen peroxide): − | Sterility Results In 2.48 mm × 50 cm Teflon lumen ([1]; 2 g 59% hydrogen peroxide): − | Sterility Results In 2.48 mm × 75 cm Teflon lumen ([1]; 2 g 59% hydrogen peroxide): + | Sterility Results In 2.48 × 100 cm Teflon lumen ([1]; 2 g 59% hydrogen peroxide): + | Sterility Results In Open Petri Dish ([1]; 2 g 59% hydrogen peroxide): − | Sterility Results In 2.48 mm × 50 cm Teflon lumen ([1]; 3 g 59% hydrogen peroxide): − | Sterility Results In 2.48 mm × 75 cm Teflon lumen ([1]; 3 g 59% hydrogen peroxide): + | Sterility Results In 2.48 × 100 cm Teflon lumen ([1]; 3 g 59% hydrogen peroxide): + | Sterility Results In Open Petri Dish ([1]; 3 g 59% hydrogen peroxide): − | Sterility Results In 2.48 mm × 50 cm lumen ([2]; Diffusion Time 0 Minute): − | Sterility Results In 2.48 mm × 75 cm lumen ([2]; Diffusion Time 0 Minute): + | Sterility Results In 2.48 × 100 cm lumen ([2]; Diffusion Time 0 Minute): + | Sterility Results In Open Petri Dish ([2]; Diffusion Time 0 Minute): − | Sterility Results In 2.48 mm × 50 cm lumen ([2]; Diffusion Time 20 Minutes): − | Sterility Results In 2.48 mm × 75 cm lumen ([2]; Diffusion Time 20 Minutes): + | Sterility Results In 2.48 × 100 cm lumen ([2]; Diffusion Time 20 Minutes): + | Sterility Results In Open Petri Dish ([2]; Diffusion Time 20 Minutes): − | Sterility Results In 2.48 mm × 50 cm lumen [3, 7]: − | Sterility Results In 2.48 mm × 75 cm lumen [3, 7]: + | Sterility Results In 2.48 mm × 100 cm lumen [3, 7]: + | Sterility Results In Open Petri Dish [3, 7]: − | Sterility Results In 2.48 mm × 50 cm lumen [3, 8]: − | Sterility Results In 2.48 mm × 75 cm lumen [3, 8]: − | Sterility Results In 2.48 mm × 100 cm lumen [3, 8]: + | Sterility Results In Open Petri Dish [3, 8]: − | Sterility Results In 2.48 mm × 50 cm lumen [3, 9]: − | Sterility Results In 2.48 mm × 75 cm lumen [3, 9]: − | Sterility Results In 2.48 mm × 100 cm lumen [3, 9]: − | Sterility Results In Open Petri Dish [3, 9]: − | Sterility Results In 2.48 mm × 50 cm lumen [3, 10]: − | Sterility Results In 2.48 mm × 75 cm lumen [3, 10]: − | Sterility Results In 2.48 mm × 100 cm lumen [3, 10]: − | Sterility Results In Open Petri Dish [3, 10]: − | Sterility Results In 2.48 mm × 50 cm lumen [3, 11]: − | Sterility Results In 2.48 mm × 75 cm lumen [3, 11]: − | Sterility Results In 2.48 mm × 100 cm lumen [3, 11]: − | Sterility Results In Open Petri Dish [3, 11]: − | Sterility Results In 2.48 mm × 50 cm lumen [3, 12]: − | Sterility Results In 2.48 mm × 75 cm lumen [3, 12]: − | Sterility Results In 2.48 mm × 100 cm lumen [3, 12]: − | Sterility Results In Open Petri Dish [3, 12]: − | Sterility Results In 2.48 mm × 50 cm lumen [3, 13]: − | Sterility Results In 2.48 mm × 75 cm lumen [3, 13]: − | Sterility Results In 2.48 mm × 100 cm lumen [3, 13]: + | Sterility Results In Open Petri Dish [3, 13]: − | Sterility Results In 2.48 mm × 50 cm lumen [3, 14]: − | Sterility Results In 2.48 mm × 75 cm lumen [3, 14]: + | Sterility Results In 2.48 mm × 100 cm lumen [3, 14]: + | Sterility Results In Open Petri Dish [3, 14]: − | Sterility Results In 2.48 mm × 50 cm lumen [4, 15]: − | Sterility Results In 2.48 mm × 75 cm lumen [4, 15]: − | Sterility Results In 2.48 mm × 100 cm lumen [4, 15]: + | Sterility Results In Open Petri Dish [4, 15]: − | Sterility Results In 2.48 mm × 50 cm lumen [4, 16]: − | Sterility Results In 2.48 mm × 75 cm lumen [4, 16]: − | Sterility Results In 2.48 mm × 100 cm lumen [4, 16]: − | Sterility Results In Open Petri Dish [4, 16]: − | Sterility Results In 2.48 mm × 50 cm lumen [5, 17]: − | Sterility Results In 2.48 × 75 cm Lumen [5, 17]: − | Sterility Results In 2.48 × 100 cm lumen [5, 17]: − | Sterility Results In Open Petri Dish [5, 17]: − | Sterility Results In 2.48 mm × 50 cm lumen [5, 18]: − | Sterility Results In 2.48 × 75 cm Lumen [5, 18]: + | Sterility Results In 2.48 × 100 cm lumen [5, 18]: + | Sterility Results In Open Petri Dish [5, 18]: − | Sterility Results In 2.48 mm × 50 cm lumen [6, 19]: − | Sterility Results In 2.48 mm × 75 cm lumen [6, 19]: − | Sterility Results In 2.48 mm × 100 cm lumen [6, 19]: − | Sterility Results In Open Petri Dish [6, 19]: − | Sterility Results In 2.48 mm × 50 cm lumen [6, 20]: − | Sterility Results In 2.48 mm × 75 cm lumen [6, 20]: + | Sterility Results In 2.48 mm × 100 cm lumen [6, 20]: + | Sterility Results In Open Petri Dish [6, 20]: −
